Where a SMILES comes first, the peptide text is derived from it. Where no end group is shown, it is not given here. The star is where a group is joined. DTPA = O=C(O)CN(CCN(CC(=O)O)CC(=O)O)CCN(CC(=O)O)CC(=O)*
Tests used:
[1] = system: monoclonal antibody 7E11-C5; assay: ELISA: biotinylated monoclonal antibody 7E11-C5 binding to immobilized mimetope peptide 7E11-9.5; design: species or system murine; details: wells coated with 5 μg/mL mimetope; antibody serially diluted from 29 μg/mL; FIG. 2
Procedure: First the mimetope peptide 7 μl-9.5 was tested for its ability to bind to the monoclonal antibody 7E11-C5. Ninety-six well plates (Immunlon 4, Dynatech, Alexandria, Va.) were coated with 50 μL of a 5 μg/mL solution of the mimetope peptide 7 μl-9.5 and incubated overnight at room temperature. Following incubation, the wells were washed 4 times with 1% BSA in PBS. Biotinylated monoclonal antibody 7E11-C5 was serially diluted with PBS beginning with a concentration of 29 μg/mL and various amounts of the monoclonal antibody were added to the wells that had been coated with the mimetope peptide. After incubating for 1 hour at room temperature, the wells were washed four times with 1% BSA in PBS and 2 times with PBS. Then, 100 AL of a 1:2000 dilution of Extravidin-Alkaline Phosphatase (4,250 units/mL) (Sigma, St. Louis, Mo.) in PBS was added to each well. After an hour, the plate was again washed 4 times with PBS and 100 μL of a 1 mg/mL solution of the enzyme substrate p-nitrophenyl phosphate was added to each well. Color was allowed to develop for 15 minutes to 1 hour and absorbance was read at 405 nm.

[2] = system: human prostate carcinoma LNCaP xenograft tumors; assay: in vivo; design: species or system SCID mice; details: mouse, iv
Procedure: Male SCID mice (C.B-17/Icr Tac—SCID mice) were purchased from Fox Chase (Philadelphia, Pa.) or. Taconic Farms (Germantown, N.Y.), were housed in sterilized cages with filter bonnets, and were given autoclaved laboratory rodent chow (Purina, St. Louis, Mo.), and filtered tap water ad libitum.
1×10^7 cells of the human prostate tumor line LNCaP (Horoszewicz et al., 1987, Anticancer Res. 7:927-936) were injected subcutaneously (s.c.) into the left rear flank of the mice. The cells were growing in exponential phase before harvesting and had been resuspended in 0.2 mL of sterile saline. Tumors were grown in the mice for 2-3 months before abtides were injected into the mice.
For biodistribution studies, abtides were modified at their amino termini with the chelator diethylene-triamine-pentaacetic acid anhydride (DTPA-A) (Sigma, St. Louis, Mo.). Approximately 2 mg of each abtide was initially dissolved in an appropriate volume of 0.1% acetic acid and then 1 mL of 0.1 M sodium bicarbonate, pH 8.0, was added. Two mg of DTPA-A was suspended in 100 AL of dimethylsulfoxide (DMSO), and 10 μL of the abtide solution added to this DTPA-A suspension. […]
In one experiment, abtide clone 14-DPTA-^111In (see Table 2) was injected intravenously (i.v.) into two groups of mice bearing measurable LNCaP xenografts. […] Thus, the total injected dose of radioactivity was about 120-140×10^6 cpm.
The first group of mice was sacrificed 2 hours after injection of the abtide and tissues were dissected for analysis. […] Dissected tissues were weighed and the amount of ^111In in them was determined by gamma counting. The cpm per gram of each tissue was calculated by dividing the cpm of ^111In found in the tissue by the weight in grams of the tissue. […]
In another experiment, abtide clone 17-DPTA-^111In (see Table 2) was injected intravenously into four SCID mice bearing measurable LNCaP xenografts. […] Thus, the total injected dose of radioactivity was about 100-110×10^6 cpm. […]

Molecule	binding of monoclonal antibody 7E11-C5 to mimetope (absorbance at 405 nm) [1]	localization to LNCaP xenograft tumors [2]
LYANPGMYSRLHSPA (not fully specified (N-terminus, C-terminus)) [7E11-9.5]	binds to the synthesized mimetope 7E11-9.5 in a concentration dependent manner	
CC[C@H](C)[C@H](NC(=O)[C@H](Cc1ccccc1)NC(=O)[C@@H](NC(=O)[C@@H]1CCCN1C(=O)[C@@H](NC(=O)[C@H](Cc1ccccc1)NC(=O)CNC(=O)[C@@H]1CCCN1C(=O)[C@@H](NC(=O)[C@H](Cc1ccc(O)cc1)NC(=O)[C@H](C)NC(=O)[C@H](CC(N)=O)NC(=O)[C@H](Cc1ccc(O)cc1)NC(=O)[C@H](CC(C)C)NC(=O)[C@H](CC(C)C)NC(=O)[C@H](Cc1ccccc1)NC(=O)[C@H](CCCNC(=N)N)NC(=O)CNC(=O)[C@H](Cc1ccccc1)NC(=O)[C@H](CC(=O)O)NC(=O)[C@H](CC(C)C)NC(=O)[C@H](CC(N)=O)NC(=O)[C@H](CCCNC(=N)N)NC(=O)[C@H](CO)NC(=O)[C@H](CC(C)C)NC(=O)[C@H](CC(=O)O)NC(=O)CN(CCN(CCN(CC(=O)O)CC(=O)O)CC(=O)O)CC(=O)O)C(C)C)[C@@H](C)O)[C@@H](C)O)C(=O)N[C@@H](CO)C(=O)N[C@@H](CC(C)C)C(=O)N[C@H](C(=O)N[C@@H](C)C(=O)N[C@@H](CCC(=O)O)C(=O)N[C@@H](Cc1c[nH]cn1)C(=O)N[C@@H](CC(C)C)C(=O)N[C@@H](CO)C(=O)N[C@@H](CO)C(=O)N1CCC[C@H]1C(=O)N[C@@H](CCCCN)C(=O)NCC(N)=O)[C@@H](C)O [abtide clone 17-DPTA-^111In, metal not drawn] ({DTPA}-DLSRNLDFGRFLLYNAYVPGFTPTFISLTAEHLSSPKG-NH2)		localized to LNCaP xenograft tumors

Source: patent publication US20040229289A1, “Antigen binding peptides (abtides) from peptide libraries” (Cytogen Corporation, priority 1994, published 2004)
